Data published in patent publication US20240398781A1, “SPIROCYCLIC CYCLIC MODULATORS OF CHOLESTEROL BIOSYNTHESIS AND THEIR USE FOR PROMOTING REMYELINATION” (GENENTECH, INC., priority 2021, published 2024).
pEC50, pKi: −log10 of the molar value. Read-outs that look alike come from different tables or passages of the source.

What was measured:
EpiSC-derived OPCs = assay: In vitro phenotypic screening of OPCs (MBP staining, high-content imaging); assay type: cell-based, mouse; conditions: percentage of MBP+ oligodendrocytes, 3 days, 0.5 nM to 1000 nM, read-out: OPC EC50
Method in brief: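 Readout: high-content imaging of MBP immunostaining around DAPI nuclei, giving percent oligodendrocytes, with EC50 from a Levenberg-Marquardt Hill fit. Epiblast stem cell-derived OPCs were plated on laminin at 150,000/cm^2 in growth-factor-free N2B27. They were exposed 3 days to an 8-point series, 0.5-1000 nM final, in two or more independent platings.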

human EBP = human EBP (Homo sapiens (Human), UniProt Q15125); assay: Competition binding assay (SPA, [3H]-Ifenprodil) to determine compound affinity to EBP; conditions: [3H]-Ifenprodil 10 nM, HEK293 membrane overexpressing human EBP, Ki=IC50/(1+[L]/Kd); read-out: hEBP SPA Ki
Sequence of human EBP (Q15125 whole entry): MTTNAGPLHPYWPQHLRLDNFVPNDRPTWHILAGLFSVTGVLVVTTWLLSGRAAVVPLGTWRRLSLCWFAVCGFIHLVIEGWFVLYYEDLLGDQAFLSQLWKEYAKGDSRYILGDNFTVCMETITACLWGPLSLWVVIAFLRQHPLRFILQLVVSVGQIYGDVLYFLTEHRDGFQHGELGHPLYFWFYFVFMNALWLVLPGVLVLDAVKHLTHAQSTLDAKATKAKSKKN
Method: Membrane preparation: To examine compound binding affinity to EBP, human EBP was overexpressed in human embryonic kidney 293 cells. Cell pellet was lysed in 10 times weight binding buffer (50 mM Tris, 5 mM MgCl2, 0.1 mM EDTA, lx protease inhibitor cocktail, pH 7.5) on ice by using a dounce homogenizer. The solution was centrifuged at 25,000 g for 50 min at 4° C. The membrane pellet was re-suspended in binding buffer and run through a 25 5/8 gauge needle. After checking the concentration by Bradford assay, the whole cell membrane solution was adjusted to 20 mg/mL and stored at −80° C.
This binding solution was centrifuged at 400 g for 5 minutes to collect the bead/membrane mixture. After re-suspending the pellet in binding buffer at the same calculated volume with 0.01% BSA (Sigma A1933), the bead/membrane mixture was added in 384-well low-binding surface plate (PerkinElmer Cat #6057480) at 25 μl/well. Radioligand at different concentrations with and without the non-radio-labeled same ligand 5 uM (for nonspecific and total signal, respectively) was added to bring final volume to 50 µl/well with DMSO concentration at 0.1%. At equilibrium (3 hours after ligand addition), radiometric signal CPM was counted by using a Microbeta2 microplate counter (Perkinelmer).
Competition binding assay to determine compound affinity: The same conditions of the radioligand Kd study were used for compound single dose percentage inhibition and equilibrium dissociation constant Ki examinations, except 50 nL compound DMSO stock was pre-added in 384-well low-binding surface plate (PerkinElmer Cat #6057480) by Echo 550 (Labcyte) to reach the final concentration for single dose test at 1 uM, and dose response test from 0.06 nM to 5 uM (8 dose, 5 times dilution). A pre-incubated bead/membrane mixture was added in compound plate at 0.3 mg beads and […] membrane per well. […] At equilibrium (3 hours after ligand addition), radiometric signal was counted as described above. The percentage inhibition of compound at each testing concentration was calculated by normalizing each condition's CPM readout to full block (5 uM non-radiolabeled ligand) and non-block (DMSO) control conditions. Compound binding inhibition IC50 was determined by nonlinear regression fitting of percentage inhibition plot against compound concentration. Compound Ki was calculated from the equation Ki=IC50/(1+[L]/Kd), which [L] was radioligand concentration used in assay. All tests had N bigger or equal to 2.

| SMILES | pEC50 (EpiSC-derived OPCs; Mus musculus, 72 h) | pKi (human EBP) | pEC50 (EpiSC-derived OPCs) |
| --- | --- | --- | --- |
| O=S1(=O)CC2(CCN([C@@H]3CCCN(c4ccc(C(F)(F)F)cc4)C3)C2)C1 (single isomer, unassigned) [22A*] | 8.02 | 7.47 |  |
| O=S1(=O)CC2(CCN([C@H]3CCCN(c4ccc(C(F)(F)F)cc4)C3)C2)C1 (single isomer, unassigned) [22B*] | 6.96 | 7.15 |  |
| Cn1nc(C(F)(F)F)cc1[C@H]1CC[C@H](N2CCC[C@@]3(CCS(=O)(=O)C3)C2)CC1 (single isomer, unassigned) [26A*] | 7.74 | 7.48 |  |
| Cn1nc(C(F)(F)F)cc1[C@H]1CC[C@H](N2CCC[C@]3(CCS(=O)(=O)C3)C2)CC1 (single isomer, unassigned) [26B*] | 6.89 | 7.68 |  |
| O=S1(=O)CC2(CCN([C@H]3CO[C@@H](c4ccc(C(F)(F)F)cc4)C3)C2)C1 (stereo in doubt) [19A*, 6-((3R,5R)-5-(4-(Trifluoromethyl)phenyl)tetrahydrofuran-3-yl)-2-thia-6-azaspiro[3.4]octane 2,2-dioxide] | 6.85 | 7.57 |  |
| O=S1(=O)CC2(CCN([C@@H]3CO[C@@H](c4ccc(C(F)(F)F)cc4)C3)C2)C1 (stereo in doubt) [19B*, 6-((3S,5R)-5-(4-(trifluoromethyl)phenyl)tetrahydrofuran-3-yl)-2-thia-6-azaspiro[3.4]octane 2,2-dioxide] | 7.31 | 7.57 |  |
| O=S1(=O)CC2(CCN([C@@H]3CO[C@H](c4ccc(C(F)(F)F)cc4)C3)C2)C1 (stereo in doubt) [19C*, 6-((3S,5S)-5-(4-(Trifluoromethyl)phenyl)tetrahydrofuran-3-yl)-2-thia-6-azaspiro[3.4]octane 2,2-dioxide] | 6.57 | 7.47 |  |
| O=S1(=O)CC2(CCN([C@H]3CO[C@H](c4ccc(C(F)(F)F)cc4)C3)C2)C1 (stereo in doubt) [19D*, 6-((3R,5S)-5-(4-(trifluoromethyl)phenyl)tetrahydrofuran-3-yl)-2-thia-6-azaspiro[3.4]octane 2,2-dioxide] | 6.80 | 7.49 |  |
| O=S1(=O)CC2(CCN([C@H]3CC[C@H](c4ccc(C(F)(F)F)cc4)CC3)C2)C1 [Compound 3A, 6-((1r,4r)-4-(4-(trifluoromethyl)phenyl)cyclohexyl)-2-thia-6-azaspiro[3.4]octane 2,2-dioxide] | 8.29 | 7.70 |  |
| O=S1(=O)CC2(CCN([C@H]3CC[C@@H](c4ccc(C(F)(F)F)cc4)CC3)C2)C1 [Compound 3B, 6-((1s,4s)-4-(4-(trifluoromethyl)phenyl)cyclohexyl)-2-thia-6-azaspiro[3.4]octane 2,2-dioxide] | 7.52 | 7.21 |  |
| O=S1(=O)CC2(CCN(C3CCN(c4ccc(C(F)(F)F)cc4)CC3)C2)C1 [Compound 4, 6-(1-(4-(trifluoromethyl)phenyl)piperidin-4-yl)-2-thia-6-azaspiro[3.4]octane 2,2-dioxide] | 7.64 | 7.59 |  |
| O=S1(=O)CC2(CCN(C3CCN(c4ccc(C(F)(F)F)nc4)CC3)C2)C1 [Compound 5, 6-(1-(6-(trifluoromethyl)pyridin-3-yl)piperidin-4-yl)-2-thia-6-azaspiro[3.4]octane 2,2-dioxide] | 6.72 | 7.17 |  |

The remaining lines, values ahead:

| pEC50 (EpiSC-derived OPCs; Mus musculus, 72 h) | pKi (human EBP) | pEC50 (EpiSC-derived OPCs) | SMILES |
| --- | --- | --- | --- |
| 6.18 | 6.57 |  | CC(C)n1cc(C(F)(F)F)nc1[C@H]1CC[C@@H](N2CCC3(C2)CS(=O)(=O)C3)C1 (single isomer, unassigned) [20C*] |
| 6.59 | 7.01 |  | CC(C)n1cc(C(F)(F)F)nc1[C@@H]1CC[C@H](N2CCC3(C2)CS(=O)(=O)C3)C1 (single isomer, unassigned) [20D*] |
|  | 7.41 | 7.28 | Cn1nc(C(F)(F)F)cc1[C@H]1CC[C@H](N2CC[C@@]3(CCS(=O)(=O)C3)C2)CC1 (single isomer, unassigned) [27A*] |
|  | 7.34 | 6.89 | Cn1nc(C(F)(F)F)cc1[C@H]1CC[C@H](N2CC[C@]3(CCS(=O)(=O)C3)C2)CC1 (single isomer, unassigned) [27B*] |
| 6.70 | 7.57 |  | Cn1nc(C(F)(F)F)cc1[C@H]1CC[C@@H](N2CC[C@]3(CCS(=O)(=O)C3)C2)CC1 (single isomer, unassigned) [38A*] |
| 6.40 | 7.62 |  | Cn1nc(C(F)(F)F)cc1[C@H]1CC[C@@H](N2CC[C@@]3(CCS(=O)(=O)C3)C2)CC1 (single isomer, unassigned) [38B*] |
|  | 7.54 | 7.30 | Cn1nc(C(F)(F)F)cc1[C@H]1CC[C@H](N2CC[C@]3(CCS(=O)(=O)C3)C2)CC1 (single isomer, unassigned) [38C*] |
|  | 7.57 | 6.70 | Cn1nc(C(F)(F)F)cc1[C@H]1CC[C@H](N2CC[C@@]3(CCS(=O)(=O)C3)C2)CC1 (single isomer, unassigned) [38D*] |
| 6.80 | 7.27 |  | O=S1(=O)CC2(CCN([C@H]3CC[C@@H](c4ccc(C(F)(F)F)nc4)C3)C2)C1 (single isomer, unassigned) [Compound 11A, (Cis)-6-(3-(6-(Trifluoromethyl)pyridin-3-yl)cyclopentyl)-2-thia-6-azaspiro[3.4]octane 2,2-dioxide] |
| 7.46 | 7.38 |  | O=S1(=O)CC2(CCN([C@@H]3CC[C@@H](c4ccc(C(F)(F)F)nc4)C3)C2)C1 (single isomer, unassigned) [Compound 11B, (Trans)-6-(3-(6-(Trifluoromethyl)pyridin-3-yl)cyclopentyl)-2-thia-6-azaspiro[3.4]octane 2,2-dioxide] |
| 7.14 | 7.40 |  | CCn1nc(-c2ccc(C(F)(F)F)nc2)nc1[C@H]1CC[C@H](N2CCC3(C2)CS(=O)(=O)C3)CC1 [36A*, 6-((1r,4r)-4-(1-Ethyl-3-(6-(trifluoromethyl)pyridin-3-yl)-1H-1,2,4-triazol-5-yl)cyclohexyl)-2-thia-6-azaspiro[3.4]octane 2,2-dioxide] |
| 7.14 | 7.24 |  | CCn1nc(-c2ccc(C(F)(F)F)nc2)nc1[C@H]1CC[C@@H](N2CCC3(C2)CS(=O)(=O)C3)CC1 [36B*, 6-((1s,4s)-4-(1-ethyl-3-(6-(trifluoromethyl)pyridin-3-yl)-1H-1,2,4-triazol-5-yl)cyclohexyl)-2-thia-6-azaspiro[3.4]octane 2,2-dioxide] |
| 8.74 | 7.00 |  | O=S1(=O)CC2(CCN([C@@H]3CC[C@@H](c4ccc(C(F)(F)F)cc4)C3)C2)C1 [Compound 1B, 6-((1R,3R)-3-(4-(trifluoromethyl)phenyl)cyclopentyl)-2-thia-6-azaspiro[3.4]octane 2,2-dioxide] |
| 6.62 | 7.70 |  | Cn1nc(C(F)(F)F)cc1[C@H]1CC[C@@H](N2CCC3(C2)CS(=O)(=O)C3)CC1 [Compound 2A, 6-((1s,4s)-4-(1-methyl-3-(trifluoromethyl)-1H-pyrazol-5-yl)cyclohexyl)-2-thia-6-azaspiro[3.4]octane 2,2-dioxide] |
| 7.32 | 7.70 |  | Cn1nc(C(F)(F)F)cc1[C@H]1CC[C@H](N2CCC3(C2)CS(=O)(=O)C3)CC1 [Compound 2B, 6-((1r,4r)-4-(1-methyl-3-(trifluoromethyl)-1H-pyrazol-5-yl)cyclohexyl)-2-thia-6-azaspiro[3.4]octane 2,2-dioxide] |
